Reference: US20260199384A1, “METHOD AND COMPOSITIONS FOR TREATING SKIN DISORDERS” (PHOENIX ANIMAL WELLNESS, INC., priority 2023, published 2026)

Legend:
[1] = system: canine DH82 macrophage cell line; assay: Cytokine assay in DH82 macrophage cultures (Example 26); type: cell-based
[2] = system: Primary canine dermal fibroblasts; assay: Cytokine assay in primary dermal fibroblast cultures (Example 26); type: cell-based
[3] = system: JAK1-dependent cytokines involved in allergy and inflammation (IL-2, IL-4, IL-6, and IL-13) as well as pruritus (IL-31); conditions: published data; cited from earlier work
[4] = system: erythropoietin, granulocyte/macrophage colony-stimulating factor, IL-12, IL-23; conditions: GM-CSF, read-out: IC50's, cytokines that do not activate the JAK1 enzyme in cells; cited from earlier work
JAK kinases = conditions: range over JAK kinases; read-out: IC50, inhibition of JAK kinases; cited from earlier work
T cell proliferation = conditions: published data; cited from earlier work
[5] = system: murine CD4+ and CD8+ T cells; conditions: not IFN-γ-producing cells; cited from earlier work
[6] = system: human peripheral blood mononuclear cells; assay: Cytokine, chemokine and growth factor production in human PBMC cultures (Example 13); type: cell-based
From the text: Proof of the antipruritic activity of oleandrin was established in vitro according to Example 13 by measuring its effect upon on the expression of key cytokines, chemokines, and other factors that are part of the innate immune system. An in vitro model of human peripheral blood mononuclear cells was used to determine effects the effects of OCC under different culture conditions: normal (no inflammation) and inflamed by lipopolysaccharide (LPS).
Reagents. Dulbecco's phosphate-buffered saline (Gibco cat. #141190-136), lipopolysaccharide (LPS) (Invitrogen cat. #00-4976-93), Roswell Park Memorial Institute 1640 cell culture medium (Gibco cat. #11835-030), Fetal Bovine Serum (Gibco cat. #A38401-01), penicillin-streptomycin 100× (Gibco cat. #15140-122), CD69 fluorescein isothiocyanate (clone FN50, Invitrogen cat. #11-0699-42), CD56 phycoerythrin (clone CMSSB Invitrogen cat. #12-0567-42), and CD3 Super Bright 645 (clone OKT3 Invitrogen cat. #64-0037-42) were purchased from Thermo Fisher Scientific (Waltham, MA, USA). CD25 Brilliant Violet 421 (clone 2A3 BD cat. #564033) and sodium heparin Vacutainer tubes (BD cat. #367878) were purchased from Becton-Dickinson (Franklin Lakes, NJ, USA). The human erythroleukemia cell line K562 was purchased from American Type Culture Collection (Manassas, VA, USA). Customized Bio-Plex Pro™ human cytokine arrays were purchased from Bio-Rad Laboratories Inc. (Hercules, CA, USA). […]
The two products were handled in the following manner: (1) A stock solution of PBI was prepared in DMSO, and subsequent dilutions were prepared in phosphate-buffered saline. […] The range of concentrations in cell cultures was calculated based on the % oleandrin and ranged from 0.5 to 500 ng oleandrin/mL cell culture medium. […]
Immune cell activation. […] The PBMC were washed twice in PBS and counted, and the density was adjusted to establish 0.18 mL cultures with a cell density at 106/mL, using Roswell Park Memorial Institute 1640 medium containing 10% fetal calf serum and 1% penicillin-streptomycin. […]

[7] = system: Natural Killer (NK) cells and monocytes; assay: Immune cell activation in PBMC cultures (CD69, CD25; Example 13); type: cell-based, human
Experimental: Immune cell activation. Peripheral venous blood was drawn from healthy human donors upon written informed consent, as approval by the Sky Lakes Medical Center Institutional Review Board, Federalwide Assurance 2603. The blood was drawn into heparin vacutainer vials, and the peripheral blood mononuclear cells (PBMC) were isolated using Lympholyte Poly by centrifugation for 35 min at 400×g. The PBMC were washed twice in PBS and counted, and the density was adjusted to establish 0.18 mL cultures with a cell density at 106/mL, using Roswell Park Memorial Institute 1640 medium containing 10% fetal calf serum and 1% penicillin-streptomycin.
Cultures were then incubated at 37° C., 5% CO2 for 24 h. The highly inflammatory LPS from Escherichia coli was used as a positive control for immune-cell activation. In parallel, IL-2 was used as a positive control for natural killer (NK)-cell activation, at a concentration of 100 IU/mL in cell culture. Untreated negative control cultures consisted of PBMC exposed to phosphate-buffered saline in the absence of test products. […] The fluorescence intensities for CD3, CD25, CD56, and CD69 were measured by flow cytometry, using an Attune NxT acoustic-focusing flow cytometer (Thermo Fisher Scientific, Waltham, MA, USA). […] The lymphocyte subpopulation was further analyzed for CD25 and CD69 expression on CD3−CD56+ NK cells, CD3+ CD56+ NKT cells, and CD3+CD56− T cells.

[8] = system: K562 human myelogenous leukemia target cells; assay: Cytotoxicity towards K562 target cells (CD107a; Example 13); type: cell-based; conditions: PBMC co-cultured with K562
From the text: Natural killer (NK) cell cytotoxicity towards K562 human myelogenous leukemia target cells. The cell surface expression of CD107a (LAMP-1) is a marker for secretory degranulation of NK and activated cytotoxic T cells when they are co-cultured with malignant or virus-infected target cells. Peripheral blood mononuclear cells from healthy human donors were co-cultured with K562 cells in the absence versus presence of test products or matching concentrations of the DMSO solvent control. All treatments, including each concentration of test product and each positive and negative control, were tested in triplicate. CD107a-FITC antibody (6.5 μL/well) was added at the beginning of each culture, along with the protein transport inhibitor BD GolgiStop™, which contains Monensin and blocks intracellular protein transport processes. After 4 h of incubation at 37° C., 5% CO2, the cells were washed in phosphate-buffered saline and stained with CD3-PerCP and CD56-PE antibodies and then fixed in formalin. Flow cytometry analysis was performed where the strategy involved initial gating of the lymphocyte and monocyte subpopulations using the forward/side scatter plot, followed by analysis of T cells and NK cells in the lymphocyte population. The fluorescence intensity of CD107a was evaluated as the mean fluorescence intensity on monocytes, NK cells, and T cells.

[9] = system: BT (Bos taurus turbinate), MDBK (Bos taurus kidney) and MARC 145 (monkey kidney) cells; assay: Lactate dehydrogenase release assay (LDH assay), Example 18; type: cell-based; conditions: up to concentrations of 1 microg/mL
Experimental: Oleandrin (PhytoLab, Vestenbergsgreuth, Germany) was dissolved at a concentration of 1 mg/ml in DMSO. The desired concentration range to be used in cytotoxicity testing is 0.005-1 ug/ml in 0.0005-0.1% wt in DMSO, respectively. Lactate dehydrogenase release assay (LDH assay) was be used to determine the cytotoxic effect of different concentration of Oleandrin on different cell cultures. LDH is a cytosolic enzyme that is released only from damaged cells (due to increased membrane permeability) to the outside medium that will convert the lactate in the medium into pyruvate in a coupled reaction that includes the reduction of NAD+ into NADH, the latter is oxidized back to NAD+ in the presence of Diaphorase in the LDH kit mix that leads to the reduction of water soluble tetrazolium (INT), that is also in the kit mix, into red Formazon product that can be read by an ELISA reader at a wave length of 490 nm. […]
This was achieved by preparing different concentration of cells in 100 μl volume staring at 1000 cell/100 μl to 20,000 cell/100 μl in a 2-fold serial dilution manner. […] After performing the test according to the manufacturer instructions, the average OD value reading of the triplicate for each dilution in each set was taken and plotted against number of cells. […] Absorbance is measured at 490 nm and 680 nm using Spectramax i3x. […]

[10] = system: dogs suffering from pruritus or atopic dermatitis; assay: Treatment of pruritus / atopic dermatitis in dogs (Examples 14, 15, 28); type: in vivo, dog; conditions: oral, 1-2 times daily, 2-6 or 3-5 microg oleandrin/Kg
Experimental: (§1) A dog presenting with pruritus was administered the aqueous liquid composition of Example 2. It contained 0.1-5 μg OLE/mL. The composition (0.25-1 mL) was administered (1-4 times daily) directly to the dog's mouth, thereby resulting in a combination of buccal and sublingual administration. […] Both inflammation and itchiness were relieved.
as §1, with “the MCT-based” for “the aqueous liquid”, “Example 21.” for “Example 2.”, “contained 12-25” for “contained 0.1-5”, “OLE/mL. A few drops of the” for “OLE/mL. The”, “mL) is” for “mL) was”
A dog presenting with pruritus was administered the aqueous liquid composition of Example 11. The composition was sprayed (1-4 pumps) directly onto the itchy area of the dog and rubbed into the skin and fur/hair. […] Both inflammation and itchiness were relieved.
Oleandrin (oleander extract) was orally administered in two different forms. The oil-based formulation of Example 21 was sprayed onto dog treats and administered between meals or sprayed onto dog food and administered as part of a meal. The chews of Example 27 were orally administered between meals. Both products were administered 1-2 times daily at doses ranging from 2-6 (preferably 3-5) microg oleandrin/Kg of bodyweight. […]

| Compound | IL-6, IFN-γ, and NGF-β ([1]; cytokines involved in dermal inflammation) | TGF-β1, IL12/IL-23p40, and TNF-α ([1]; less robust than the reductions triggered by OE and oleandrin) | levels of IL-8 and MCP-1 [2] | concentrations at which anti-inflammatory properties have been reported [3] [nM] | IC50 [4] [nM] | IC50 (JAK kinases) [nM] | concentration at which inhibition of T cell proliferation was seen (T cell proliferation) [µM] | frequency of IL-4- and IL-10-producing murine CD4+ and CD8+ T cells [5] | production of cytokines [6] | expression of IFN-γ, G-CSF, and IL-6 ([6]; 0.5 to 500 ng oleandrin/mL) | formation/expression of IL-21, IL-22, IL-23, IL-25, IL-31, IL-33, and TNF-α ([6]; 0.5 to 500 ng oleandrin/mL) | activation of Natural Killer (NK) cells and monocytes [7] | T cell cytotoxic attack on malignant target cells [8] | IL-6, IL-12/IL-23p40, IFN-γ, TNF-α, VEGF, and NGF-β ([1]; DH82 macrophage cultures, inflamed conditions (LPS), 24 hours) | toxicity, release of lactate dehydrogenase [9] | time until improvements became evident [10] [days] | itching and scratching ([10]; as included in an oleander extract) |
| --- | --- | --- | --- | --- | --- | --- | --- | --- | --- | --- | --- | --- | --- | --- | --- | --- | --- |
| CNS(=O)(=O)C[C@H]1CC[C@H](N(C)c2ncnc3[nH]ccc23)CC1 [oclacitinib] | increases | reductions | little or no effect | 36 to 249 | > 1000 | 10 to 99 | 10 | reduces | – | – | – | – | – | – | – | – | – |
| CO[C@H]1C[C@H](O[C@H]2CC[C@@]3(C)[C@H](CC[C@@H]4[C@@H]3CC[C@]3(C)[C@@H](C5=CC(=O)OC5)[C@@H](OC(C)=O)C[C@]43O)C2)O[C@@H](C)[C@@H]1O [oleandrin] | – | – | reduced | – | – | – | – | – | increased | induced | suppressed | directly activated | increased | reductions | no additional toxicity over control vehicle | 1 to 3 | significant reduction in itching and scratching |
